Test results taken from US20220274965A1, “ANTIVIRAL AGENTS AND USES THEREOF” (GRIFFITH UNIVERSITY, priority 2019, published 2022).
Where two headings read alike, the source gives them in different places.

Columns and labels:
[1] = biological target: hPIV-3 strain C243 neuraminidase (UniProt P08492, species not given/STRAIN_C243); assay type: biochemical
[2] = tested on: hPIV-1 strain C35; assay: Haemagglutination inhibition (HI) assay with human red blood cells; assay type: biochemical; conditions: hPIV1 C35
[3] = tested on: hPIV-3 strain CI002 (clinical isolate); assay: as above; assay type: biochemical; conditions: hPIV3 CI002
[4] = tested on: hPIV-3 strain JS; assay: as above; assay type: biochemical; conditions: hPIV3 JS
[5] = tested on: hPIV-3 strain JS; assay: In situ ELISA virus growth inhibition in LLC-MK2 cells; assay type: cell-based; conditions: Human respirovirus 3, LLC-MK2; hPIV3 JS
[6] = biological target: hPIV-3 strain CI002 (clinical isolate) neuraminidase (UniProt P08492, species not given/STRAIN_CI002); assay type: biochemical; conditions: hPIV3 CI002; read-out: NI IC50
[7] = tested on: hPIV-3 strain C243; assay: Haemagglutination inhibition (HI) assay with human red blood cells; assay type: biochemical; conditions: hPIV3 C243
[8] = tested on: hPIV-3 strain C243; assay: In situ ELISA virus growth inhibition in LLC-MK2 cells; assay type: cell-based; conditions: Human respirovirus 3, LLC-MK2
[9] = tested on: hPIV-3 strain CI002 (clinical isolate); assay: as above; assay type: cell-based; conditions: Human respirovirus 3, LLC-MK2; hPIV3 CI002
[10] = hPIV-3 strain C243, Table 1, read-out: NI (IC50)
[11] = hPIV3 C243, Table 2, read-out: NI IC50

hPIV-3 strain C243 neuraminidase, sequence (P08492 whole entry, change not shown): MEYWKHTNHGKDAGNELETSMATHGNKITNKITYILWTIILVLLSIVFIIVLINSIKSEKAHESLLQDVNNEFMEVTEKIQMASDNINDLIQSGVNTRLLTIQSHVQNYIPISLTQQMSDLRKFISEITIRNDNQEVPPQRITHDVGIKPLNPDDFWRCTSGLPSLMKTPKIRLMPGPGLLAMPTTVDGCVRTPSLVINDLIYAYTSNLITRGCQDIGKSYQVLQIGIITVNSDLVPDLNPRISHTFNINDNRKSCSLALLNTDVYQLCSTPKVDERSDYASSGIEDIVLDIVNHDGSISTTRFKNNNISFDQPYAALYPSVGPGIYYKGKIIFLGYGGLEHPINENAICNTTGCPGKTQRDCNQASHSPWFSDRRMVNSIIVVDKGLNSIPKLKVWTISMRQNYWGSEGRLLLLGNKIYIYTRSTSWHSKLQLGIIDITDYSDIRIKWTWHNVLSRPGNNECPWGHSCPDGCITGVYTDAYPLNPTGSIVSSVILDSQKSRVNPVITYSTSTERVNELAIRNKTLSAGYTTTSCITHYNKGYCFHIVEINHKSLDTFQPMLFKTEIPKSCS
hPIV-3 strain CI002 (clinical isolate) neuraminidase, sequence (P08492 whole entry, change not shown): as above

SMILES | IC50 [1, 10] | IC50 [2] | IC50 [3] | IC50 [4] | also measured
CC(=O)N[C@H]1[C@H]([C@H](O)[C@H](O)CO)OC(C(=O)O)=C[C@@H]1n1cc2ccc3ccccc3c2n1 [IE1530-65] | 10.2 µM | – | – | – | –
CC(=O)N[C@H]1[C@H]([C@H](O)[C@H](O)CO)OC(C(=O)O)=C[C@@H]1n1cc(-c2ccccc2NC(=O)CNC(=O)c2ccc(N(C)C)cc2)nn1 | – | > 200 µM | > 200 µM | 14 µM | IC50 [5]: 355 µM
CC(C)C(=O)N[C@H]1[C@H]([C@H](O)[C@H](O)CO)OC(C(=O)O)=C[C@@H]1n1cc2cc(C(=O)O)ccc2n1 | – | – | – | – | IC50 [1, 11]: 230 µM; IC50 [6]: 163 µM; IC50 [7]: > 200 µM
O=C(O)C1=C[C@H](n2nnc3c4ccccc4ccc32)[C@@H](NC(=O)C(F)(F)F)[C@H]([C@H](O)[C@H](O)CO)O1 [IE1778-74] | 0.568 µM | – | – | – | IC50 ([8]; hPIV-3 strain C243, Table 1): 1.87 µM
CC(=O)N[C@H]1[C@H]([C@H](O)[C@H](O)CO)OC(C(=O)O)=C[C@@H]1n1cc2ccccc2n1 [IE1530-66] | 92.8 µM | – | – | – | –
CC(=O)N[C@H]1[C@H]([C@H](O)[C@H](O)CO)OC(C(=O)O)=C[C@@H]1n1cc(-c2ccccc2NC(=O)CNS(=O)(=O)c2cccc([N+](=O)[O-])c2)nn1 | – | > 200 µM | 44.5 µM | 15.4 µM | IC50 [9]: 99.1 µM
CC(=O)N[C@H]1[C@H]([C@H](O)[C@H](O)CO)OC(C(=O)O)=C[C@@H]1n1cc(-c2ccccc2NC(=O)CO)nn1 [IE1778-25] | 27.9 µM | – | – | – | –
CC(=O)N[C@H]1[C@H]([C@H](O)[C@H](O)CO)OC(C(=O)O)=C[C@@H]1n1cc(-c2ccccc2NC(=O)CNC(=O)c2ccccc2)nn1 | – | > 200 µM | > 200 µM | 20 µM | IC50 [5]: 340 µM
CC(=O)N[C@H]1[C@H]([C@H](O)[C@H](O)CO)OC(C(=O)O)=C[C@@H]1n1cc(-c2ccccc2NC(=O)CNC(=O)c2ccc(-c3ccccc3)cc2)nn1 | – | > 200 µM | 44.5 µM | 6.4 µM | IC50 ([8]; hPIV3 C243, Table 2): 23.7 µM; IC50 [5]: 60.7 µM
COc1c(F)c(F)cc(C(=O)Nc2ccccc2-c2cn([C@H]3C=C(C(=O)O)O[C@@H]([C@H](O)[C@H](O)CO)[C@@H]3NC(C)=O)nn2)c1F | – | > 200 µM | – | > 250 µM | IC50 [1, 11]: 32.8 µM; IC50 ([8]; hPIV3 C243, Table 2): 177 µM; IC50 [5]: 764 µM
COc1ccc(OC)c2nn([C@H]3C=C(C(=O)O)O[C@@H]([C@H](O)[C@H](O)CO)[C@@H]3NC(=O)C(F)(F)F)cc12 | – | – | – | – | IC50 [1, 11]: 11.2 µM; IC50 [6]: 74.2 µM; IC50 [7]: 14.8 µM
CC(=O)N[C@@H]1[C@@H]([C@@H](O)[C@@H](O)CO)OC(C(=O)O)=C[C@H]1n1cc(-c2ccccc2NC(=O)CCCCCn2cc(CCCc3cn(CCCCCC(=O)Nc4ccccc4-c4cn([C@H]5C=C(C(=O)O)O[C@@H]([C@H](O)[C@H](O)CO)[C@@H]5NC(C)=O)nn4)nn3)nn2)nn1 [IE1826-14] | 8.22 µM | – | – | – | –
CC(=O)N[C@@H]1[C@@H]([C@@H](O)[C@@H](O)CO)OC(C(=O)O)=C[C@H]1n1cc(-c2ccccc2NC(=O)CCCCc2cn(CCCCCC(=O)Nc3ccccc3-c3cn([C@H]4C=C(C(=O)O)O[C@@H]([C@H](O)[C@H](O)CO)[C@@H]4NC(C)=O)nn3)nn2)nn1 [IE1826-28] | 14 µM | – | – | – | –
CC(=O)N[C@H]1[C@H]([C@H](O)[C@H](O)CO)OC(C(=O)O)=C[C@@H]1n1nnc2c3ccccc3ccc21 [IE1778-64] | 4.13 µM | – | – | – | –
COCc1cn(CCCCCC(=O)Nc2ccccc2-c2cn([C@H]3C=C(C(=O)O)O[C@@H]([C@H](O)[C@H](O)CO)[C@@H]3NC(C)=O)nn2)nn1 [IE1826-38] | 24.2 µM | – | – | – | –
N#Cc1ccc2cn([C@H]3C=C(C(=O)O)O[C@@H]([C@H](O)[C@H](O)CO)[C@@H]3NC(=O)C(F)(F)F)nc2c1 | – | > 200 µM | > 200 µM | > 200 µM | IC50 [1, 11]: 49.8 µM; IC50 [6]: 208 µM
CC(=O)N[C@H]1[C@H]([C@H](O)[C@H](O)CO)OC(C(=O)O)=C[C@@H]1n1cc(-c2ccccc2NC(=O)CCCCCN=[N+]=[N-])nn1 [IE1826-23] | 69.2 µM | – | – | – | –
CC(=O)N[C@H]1[C@H]([C@H](O)[C@H](O)CO)OC(C(=O)O)=C[C@@H]1n1cc(-c2ccccc2NC(=O)c2cccc(OC(F)(F)F)c2)nn1 | – | – | > 200 µM | > 250 µM | IC50 [1, 11]: 47.4 µM; IC50 [7]: > 200 µM; IC50 ([8]; hPIV3 C243, Table 2): 217 µM; IC50 [5]: > 500 µM
